Literature values, collected in patent US20040220167A1, “Methods of treating neuralgic pain” (priority 2003, published 2004).

Conditions: in vivo

Verteporfin
fraction cleared via the kidneys: Less than 1%
mean half-life: 5 to 6 h
primary clearance route: primarily cleared through bile and feces
